Assay results published in US20050020615A1, “CCI-779 lyophilized formulations” (Wyeth, priority 2003, published 2005).

What was measured:
[1] = tested on: human glioblastoma cell line; conditions: in vitro, platelet-derived growth factor; cited from earlier work
[2] = tested on: histologically diverse tumor cells; conditions: in vitro; cited from earlier work
[3] = Solubility in water; format: physicochemical
[4] = tested on: orthotopic glioma; conditions: nude mice; cited from earlier work
[5] = Chemical stability of CCI-779 in solution (pH, chelating agent); format: physicochemical; conditions: citric acid at less than 0.01% w/v
Text: Desirably, when a significant amount of water (e.g,. 40% v/v or greater) is present in the solvent blend of the pre-lyophilized solution, it is advantageous to adjust the pH to 4 to 6 as this is the range of maximum stability for CCI-779. In one embodiment, the pH is adjusted to a pH of about 5.5.
In some embodiments, components with chelating activity are included in the formulations of the invention as the sole “antioxidant component”. Typically, such metal-binding components, when acting as chelating agents are used in the lower end of the range of concentrations for the antioxidant component provided herein. […] Additionally, such chelating agents may be used in combination with other antioxidants as part of the antioxidant component of the invention. For example, an acceptable formulation may contain both citric acid and d,l-α-tocopherol. Optimal concentrations for the selected antioxidant(s) can be readily determined by one of skill in the art, based upon the information provided herein. All percentages are expressed a % w/v in the pre-lyophilized solution.
Desirably, the pre-lyophilization solution has a pH in the range of 4 to 6, which has been found by the inventor to improve the stability of CCI-779. Depending upon the components of the pre-lyophilization solution, the pH can be adjusted using any suitable inorganic or organic acid, or base, as needed. […]

[6] = tested on: human tumor xenografts of diverse histological types; conditions: nude mice; cited from earlier work

solubility in water [3]: poor solubility in water | effect of citric acid on stability of CCI-779 [5]: enhanced the stability
SMILES: CO[C@H]1C[C@@H]2CC[C@@H](C)[C@@](O)(O2)C(=O)C(=O)N2CCCC[C@H]2C(=O)O[C@H]([C@H](C)C[C@@H]2CC[C@@H](OC(=O)C(C)(CO)CO)[C@H](OC)C2)CC(=O)[C@H](C)/C=C(\C)[C@@H](O)[C@@H](OC)C(=O)[C@H](C)C[C@H](C)/C=C/C=C/C=C/1C [CCI-779, rapamycin 42-ester with 3-hydroxy-2-(hydroxymethyl)-2-methylpropionic acid]
growth factor-induced stimulation of cells [1]: markedly suppressed | growth of tumor cells [2]: inhibit the growth | activity in orthotopic glioma model [4]: active | activity against xenografts [6]: has activity
